Entries after “also recorded” stand apart in the source; their conditions may differ.
What was measured:
HT29 cells [1] = assay: Uptake and metabolism in HT29 colon cancer cells (LC-MS); type: in vitro ADME, human; settings: HT29, 10 μM; for clearance / metabolism in cells after lipid removal: then incubated without lipids for up to 6 hours
Method: In this example, the uptake and metabolism of C14 sphingadienes was compared with that of synthetic C17 sphingosine (as a substitute for endogenous C18 sphingosine which is already present in cells) and C14 sphingosine (to assess the importance of the second double bond) by HT29 colon cancer cells. Toward that end, cells were incubated with 10 μM sphingadiene in serum-free media, followed by cell harvest at various time points, lipid extraction and analysis by mass spectrometry of SD, SD-phosphate, C14 sphingosine and corresponding S1Ps.
HT29 cells were incubated for 0.25 hours, 0.5 hours and 1 hour in media containing 10 μM C14-So (Δ4) (sphingosine) or C14Δ4:6Sd (see FIG. 9A). HT29 cells were incubated for 1 hour in media containing 10 μM C14-So or C14Δ4:6Sd. Media was then removed and cells were incubated without lipids for 1, 3 and 6 hours (FIG. 9B). At each time point, cells were harvested, lipids were extracted and the cellular contents of C14-So or C14Δ4:6Sd and the corresponding phosphorylated compounds were analyzed by LC-MS.

[2] = molecular target: T1, murine Sphingosine Kinase 1 (SK1) (Mus musculus, UniProt Q8CI15); assay: Phosphorylation by SK1 in extracts of HEK293 cells overexpressing SK1 (HPLC); type: biochemical; settings: cell extracts preincubated for 10 minutes
T1 construct: expressed in transfected cells; host or cells: HEK293
Method: The formed phosphorylated sphingoid base products were measured by HPLC.
In order to test if preincubation with C14-So or C14Δ4:6Sd has an inhibitory effect on the ability of the SK enzyme to phosphorylate the C17-So compound, cell extracts were preincubated for 10 minutes with either C14-So or C14Δ4:6Sd followed by C17-So.

[3] = molecular target: T2, human Sphingosine-1-Phosphate Lyase (SPL) (Homo sapiens, UniProt O95470); assay: Cleavage by SPL in HEK 293 cells overexpressing SPL; type: biochemical
T2 construct: expressed in transfected cells; host or cells: HEK 293
T2 sequence (O95470 1-568): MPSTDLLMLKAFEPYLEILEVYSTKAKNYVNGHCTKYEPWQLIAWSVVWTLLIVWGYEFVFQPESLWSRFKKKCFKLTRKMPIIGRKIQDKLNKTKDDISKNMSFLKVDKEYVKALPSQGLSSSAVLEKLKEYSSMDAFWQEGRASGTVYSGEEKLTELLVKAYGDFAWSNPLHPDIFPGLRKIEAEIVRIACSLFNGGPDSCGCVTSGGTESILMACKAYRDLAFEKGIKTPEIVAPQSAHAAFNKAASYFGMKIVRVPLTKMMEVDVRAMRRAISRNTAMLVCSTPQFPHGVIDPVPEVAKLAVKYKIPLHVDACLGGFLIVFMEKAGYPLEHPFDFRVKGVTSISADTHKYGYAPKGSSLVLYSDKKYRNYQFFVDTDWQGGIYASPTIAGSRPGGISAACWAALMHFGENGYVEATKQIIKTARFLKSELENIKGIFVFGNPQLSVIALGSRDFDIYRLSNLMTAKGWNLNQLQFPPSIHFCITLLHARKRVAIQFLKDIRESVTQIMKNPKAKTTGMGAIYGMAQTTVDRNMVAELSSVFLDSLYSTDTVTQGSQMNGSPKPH

HT29 cells [4] = assay: Viability of HT29 colon cancer cells; type: cell-based, human; settings: HT29, various concentrations, 24 hours
Method: The human colon cancer cell lines, HT29, SW480, HCT116 and DLD1 were treated with 10 μM C14Δ4:6Sd (also referred to herein as 2-aminotetradeca-4,6-diene-1,3-diol) and viability was determined at 24 hours.
HT29 cells were then incubated with various sphingadiene compounds and viability was determined at 24 hours.
HT29 cells were incubated with various concentrations of C14Δ4:6Sd and viability was determined at 24 hours or incubated with 10 μM C14Δ4:6Sd and viability was determined at various time points.
In a further experiment, HT29 cells were treated with the PI3K inhibitor wortmannin and various concentrations of C14Δ4:6Sd and viability was determined at 24 hours by MTT assay. The results confirmed synergistic inhibition of […] by C14Δ4:6Sd and wortmannin (see FIG. 8C).

4EBP = 4EBP phosphorylation by western blotting in HT29 cells; type: cell-based, human; settings: HT29, 10 μM, 0.5 to 24 hours
Method: (§1) To address the possibility that sphingadienes might promote cell death by inhibiting the PI3K/AKT pathway, the effect of sphingadienes on phosphorylation of AKT, PTEN, and the AKT substrate 4EBP, which is a regulator of protein translation, was evaluated using immunoblotting of whole cell extracts.
(§2) HT29 cells were incubated with 10 μM C14Δ4:6Sd for 0.5, 1, 3, 6 and 24 hours and the level of Akt and 4EBP phosphorylation was evaluated at each time point by western blotting. […] The ratios of phosphorylated Akt to total Akt and of phosphorylated 4EBP to total 4EBP, were quantified by densitometry using ImageJ software (ImageJ is a public domain Java image processing program inspired by NIH Image; available at rsbweb.nih.gov/ij/index.html) and are shown in FIG. 7A and FIG. 7B, respectively.
(§3) In an additional experiment, HT29 cells were treated for various time periods with 10 μM C14Δ4:6Sd or C18Δ4:8Sd and the level of phosphorylation of Akt and 4EBP was evaluated by western blotting at 0.5, 1.0 and 3.0 hours. The results confirmed that sphingadienes inhibited phosphorylation of Akt and 4EBP, even at 0.5 hours of exposure, thus inhibiting signaling through Akt and 4EBP.

Akt = Akt phosphorylation by western blotting in HT29 cells; type: cell-based, human; settings: HT29, 10 μM, 0.5 to 24 hours
Method: as §1, §2, §3

T1 sequence (Q8CI15 whole entry): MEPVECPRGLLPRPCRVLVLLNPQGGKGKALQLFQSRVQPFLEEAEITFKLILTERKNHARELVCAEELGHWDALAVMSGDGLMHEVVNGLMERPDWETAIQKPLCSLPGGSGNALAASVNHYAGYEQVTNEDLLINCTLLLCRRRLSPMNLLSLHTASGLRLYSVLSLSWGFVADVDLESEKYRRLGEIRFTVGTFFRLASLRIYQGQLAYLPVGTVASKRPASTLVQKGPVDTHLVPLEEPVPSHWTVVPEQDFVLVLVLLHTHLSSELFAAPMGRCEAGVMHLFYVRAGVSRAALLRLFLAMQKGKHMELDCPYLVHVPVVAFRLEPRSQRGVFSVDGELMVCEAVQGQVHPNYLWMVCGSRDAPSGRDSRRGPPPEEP

Question: How did the “conversion to the phosphorylated compound in intact cells” value (HT29 cells [1]; LC-MS) turn out when CCCCCCCCCCCCC/C=C/[C@@H](O)[C@@H](N)CO [C14-So, reference compound] was run?
Answer: efficiently phosphorylated

Question: What about the “uptake rate compared with long chain sphingosine” value (HT29 cells [1]; not shown) of the same compound?
Answer: faster

Question: And the “uptake rate by cells” value (HT29 cells [1]; serum-free media)?
Answer: taken up at equal rates

Question: And the “clearance / metabolism in cells after lipid removal” value (HT29 cells [1])?
Answer: completely metabolized

Question: What about the “clearance / metabolism in cells after lipid removal” value (HT29 cells [1]; listed as C14 sphingosine) of the same compound?
Answer: cleared from the cells in hours; also recorded: rapidly metabolized

Question: What about the “inhibitory effect on phosphorylation of C17-So by SK” value [2] of the same compound?
Answer: no inhibitory effect was observed

Question: Which “processing of C17So-1P following preincubation” value [3] does the source give for CCCCCCCCCC=CC(O)C(N)COP(=O)(O)O (stereo not drawn) [C14So-1P] here?
Answer: No significant difference

Question: With CCCCCC=CCCC=CC(O)C(N)CO (stereo not drawn) [C14Δ4:8Sd] as the compound, how does the “cytotoxicity (viability)” value (HT29 cells [4]) read?
Answer: cytotoxic

Question: With CCCCCCCCCCC/C=C/C=C/C(O)C(N)CO (stereo not drawn) [C18Δ4:6Sd] as the compound, how does the “cytotoxicity (viability)” value (HT29 cells [4]) read?
Answer: cytotoxic

Question: With CCCCCCCCC/C=C/CC/C=C/C(O)C(N)CO (stereo not drawn) [C18Δ4:8Sd] as the compound, how does the “cytotoxicity (viability)” value (HT29 cells [4]) read?
Answer: cytotoxic

Question: What about the “phosphorylation of 4EBP” value (4EBP) of the same compound?
Answer: inhibited

Question: And the “phosphorylation of Akt” value (Akt)?
Answer: inhibited

— patent US8741967B2, “Use of unsaturated sphingosine compounds as chemotherapeutic agents for the treatment of cancer” (Children's Hospital & Research Center at Oakland, priority 2007, dated 2014)
